Among the data in patent publication US12454529B2, “Piperazine cyclic ureas” (SIRONAX LTD., priority 2020, dated 2025) are EC50 values, retold here.

What is called EC50 is the concentration that produces a half-maximal response.

The first test has as its system HT-29 cells. The test can be described thus: HT-29 cell necrosis/necroptosis inhibition (TNF-α + SMAC mimetic + zVAD-FMK; CellTiter-Glo cell viability). The settings on record: Homo sapiens, HT-29, 20 h, read-out: EC50 (Cell activity; Necrosis/Necroptosis Inhibitory Activity, Compounds 143-323). The class given is cell-based. In outline:
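Necroptosis was driven by TNF-α 10 ng/ml plus SMAC mimetic 6 μM and zVAD-FMK 10 μM in serum-free medium, with compounds as a 10-point threefold titration. After 20 h at 37 °C, ATP-based luminescence was read; EC50 values are geometric means of duplicate curves.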
As for `CC(=O)N1Cc2c(-c3nc(N4CCN(C(=O)N5N=CC[C@H]5c5cc(F)cc(C#N)c5)CC4)ncc3F)nn(C)c2C1` [Compound 152, (S)-3-(1-(4-(4-(5-acetyl-1-methyl-1,4,5,6-tetrahydropyrrolo[3,4-c]pyrazol-3-yl)-5-fluoropyrimidin-2-yl)piperazine-1-carbonyl)-4,5-dihydro-1H-pyrazol-5-yl)-5-fluorobenzonitrile], the half-maximal effective concentration (EC50) was in the range of 1000 to 10000 nM.

The test is the same for the next values; noted with them: Homo sapiens; HT-29 cells, TNF-α 10 ng/ml + SMAC mimetic 6 μM + zVAD-FMK 10 μM, 20 hours; geometric mean, 10 points in duplicate; read-out: EC50 (Cell activity; Necrosis/Necroptosis Inhibitory Activity, Compounds 1-142).
As for `Cc1cc(O)n(-c2nc(N3CCN(C(=O)N4N=CC[C@H]4c4cc(F)cc(C#N)c4)CC3)ncc2F)n1` [Compound 141, (S)-3-fluoro-5-(1-(4-(5-fluoro-4-(5-hydroxy-3-methyl-1H-pyrazol-1-yl)pyrimidin-2-yl)piperazine-1-carbonyl)-4,5-dihydro-1H-pyrazol-5-yl)benzonitrile], the EC50 is 0.1 to 100 nM.

Take `Cc1nn(CC2CCCCO2)c(C)c1-c1nc(N2CCN(C(=O)N3N=CC[C@H]3c3cc(F)cc(C#N)c3)CC2)ncc1F` (some centres unmarked) [Compound 137, 3-((58)-1-(4-(4-(3,5-dimethyl-1-((tetrahydro-2H-pyran-2-yl)methyl)-1H-pyrazol-4-yl)-5-fluoropyrimidin-2-yl)piperazine-1-carbonyl)-4,5-dihydro-1H-pyrazol-5-yl)-5-fluorobenzonitrile]: the EC50 was in the range of 0.1 to 100 nM.

Consider `Cc1nn(CC(N)=O)nc1-c1nc(N2CCN(C(=O)N3N=CC[C@H]3c3cc(F)cc(C#N)c3)CC2)ncc1F` [Compound 78, (S)-2-(4-(2-(4-(5-(3-cyano-5-fluorophenyl)-4,5-dihydro-1H-pyrazole-1-carbonyl)piperazin-1-yl)-5-fluoropyrimidin-4-yl)-5-methyl-2H-1,2,3-triazol-2-yl)acetamide], for which the EC50 lay in the range of 0.1 to 100 nM.

As to `Cc1nn(-c2nc(N3CCN(C(=O)N4N=CC[C@H]4c4cc(F)cc(C#N)c4)CC3)ncc2F)c(C)c1N` [Compound 131, (S)-3-(1-(4-(4-(4-amino-3,5-dimethyl-1H-pyrazol-1-yl)-5-fluoropyrimidin-2-yl)piperazine-1-carbonyl)-4,5-dihydro-1H-pyrazol-5-yl)-5-fluorobenzonitrile], the EC50 lay in the range of 0.1 to 100 nM.

Take `Cn1ncnc1-c1nc(N2CCN(C(=O)N3N=CC[C@H]3c3cc(F)cc(C#N)c3)CC2)ncc1F` [Compound 66, (S)-3-fluoro-5-(1-(4-(5-fluoro-4-(1-methyl-1H-1,2,4-triazol-5-yl)pyrimidin-2-yl)piperazine-1-carbonyl)-4,5-dihydro-1H-pyrazol-5-yl)benzonitrile]: the EC50 was 0.1 to 100 nM.

Still in this test, the particulars now being: Homo sapiens; HT-29 cells, TNF-α 10 ng/ml + SMAC mimetic 6 μM + zVAD-FMK 10 μM, 20 hours; geometric mean, 10 points in duplicate; read-out: EC50 (Cell activity; Necrosis/Necroptosis Inhibitory Activity, Compounds 143-323).
On to `Cc1nc(C(N)=O)nn1-c1nc(N2CCN(C(=O)N3N=CC[C@H]3c3cc(F)cc(F)c3)CC2)ncc1F` [Compound 252, (S)-1-(2-(4-(5-(3,5-difluorophenyl)-4,5-dihydro-1H-pyrazole-1-carbonyl)piperazin-1-yl)-5-fluoropyrimidin-4-yl)-5-methyl-1H-1,2,4-triazole-3-carboxamide], for which the EC50 lay within 0.1 to 100 nM.

Consider `Cc1nn(S(C)(=O)=O)c(C)c1-c1nc(N2CCN(C(=O)N3N=CC[C@H]3c3cc(F)cc(C#N)c3)CC2)ncc1F` [Compound 208, (S)-3-(1-(4-(4-(3,5-dimethyl-1-(methylsulfonyl)-1H-pyrazol-4-yl)-5-fluoropyrimidin-2-yl)piperazine-1-carbonyl)-4,5-dihydro-1H-pyrazol-5-yl)-5-fluorobenzonitrile], for which the concentration for a half-maximal effect (EC50) fell in the range of 0.1 to 100 nM.

`Cc1nc(C)n(-c2nc(N3CCN(C(=O)N4N=CC[C@H]4c4cc(F)cc(C#N)c4)CC3)ncc2Cl)n1` [Compound 260, (S)-3-(1-(4-(5-chloro-4-(3,5-dimethyl-1H-1,2,4-triazol-1-yl)pyrimidin-2-yl)piperazine-1-carbonyl)-4,5-dihydro-1H-pyrazol-5-yl)-5-fluorobenzonitrile]: the EC50 lay within 0.1 to 100 nM.

Consider `Cc1nc(CF)nn1-c1nc(N2CCN(C(=O)N3N=CC[C@H]3c3cc(F)cc(C#N)c3)CC2)ncc1F` [Compound 246], for which the EC50 was in the range of 0.1 to 100 nM.

With `[2H]C1(c2cc(F)cc(F)c2)CC=NN1C(=O)N1CCN(c2ncc(F)c(-n3nc(C)nc3C)n2)CC1` (centres unmarked) [Compound 262, (5-(3,5-difluorophenyl)-4,5-dihydro-1H-pyrazol-1-yl-5-d)(4-(4-(3,5-dimethyl-1H-1,2,4-triazol-1-yl)-5-fluoropyrimidin-2-yl)piperazin-1-yl)methanone], the half-maximal effective concentration (EC50) is 0.1 to 100 nM.

As for `Cn1ncnc1-c1nc(N2CCN(C(=O)N3N=CC[C@H]3c3cc(F)cc(C#N)c3)CC2)ncc1Cl` [Compound 166, (S)-3-(1-(4-(5-chloro-4-(1-methyl-1H-1,2,4-triazol-5-yl)pyrimidin-2-yl)piperazine-1-carbonyl)-4,5-dihydro-1H-pyrazol-5-yl)-5-fluorobenzonitrile], the EC50 was 0.1 to 100 nM.

On to `Cc1nn(-c2cc(N3CCN(C(=O)N4N=CC[C@H]4c4cc(F)cc(F)c4)CC3)ncn2)c(C)c1C(N)=O` [Compound 281, (S)-1-(6-(4-(5-(3,5-difluorophenyl)-4,5-dihydro-1H-pyrazole-1-carbonyl)piperazin-1-yl)pyrimidin-4-yl)-3,5-dimethyl-1H-pyrazole-4-carboxamide], for which the half-maximal effective concentration (EC50) was 0.1 to 100 nM.

For the compound `CCn1ncnc1-c1nc(N2CCN(C(=O)N3N=CC[C@H]3c3cc(F)cc(C#N)c3)CC2)ncc1F` [Compound 167, (S)-3-(1-(4-(4-(1-ethyl-1H-1,2,4-triazol-5-yl)-5-fluoropyrimidin-2-yl)piperazine-1-carbonyl)-4,5-dihydro-1H-pyrazol-5-yl)-5-fluorobenzonitrile], the half-maximal effective concentration (EC50) fell in the range of 0.1 to 100 nM.

As to `Cc1cnc(C2CC=NN2C(=O)N2CCN(c3nc(-c4c(C)cnn4C)ncc3F)CC2)s1` (centres unmarked) [Compound 145, (4-(2-(1,4-dimethyl-1H-pyrazol-5-yl)-5-fluoropyrimidin-4-yl)piperazin-1-yl)(5-(5-methylthiazol-2-yl)-4,5-dihydro-1H-pyrazol-1-yl)methanone], the EC50 was in the range of 0.1 to 100 nM.

For `Cc1nnc(-c2nc(N3CCN(C(=O)N4N=CC[C@H]4c4cc(F)cc(F)c4)CC3)ncc2F)o1` [Compound 187, (S)-(5-(3,5-difluorophenyl)-4,5-dihydro-1H-pyrazol-1-yl)(4-(5-fluoro-4-(5-methyl-1,3,4-oxadiazol-2-yl)pyrimidin-2-yl)piperazin-1-yl)methanone], the EC50 was in the range of 0.1 to 100 nM.

Take `Cc1nnc(-c2nc(N3CCN(C(=O)N4N=CCC4c4ncccc4Cl)CC3)ncc2F)s1` (centres unmarked) [Compound 210]: the concentration for a half-maximal effect (EC50) fell in the range of 0.1 to 100 nM.

Turning to `Cc1cnn(C)c1-c1cc(N2CCN(C(=O)N3N=CC[C@H]3c3cc(F)cc(C#N)c3)CC2)c(F)cn1` [Compound 269, (S)-3-(1-(4-(2-(1,4-dimethyl-1H-pyrazol-5-yl)-5-fluoropyridin-4-yl)piperazine-1-carbonyl)-4,5-dihydro-1H-pyrazol-5-yl)-5-fluorobenzonitrile], the half-maximal effective concentration (EC50) was in the range of 0.1 to 100 nM.

For `Cc1nc(C)n(-c2nc(N3CCN(C(=O)N4N=CC[C@@H]4c4ncc(C)s4)CC3)ncc2F)n1` [Compound 242, (R)-(4-(4-(3,5-dimethyl-1H-1,2,4-triazol-1-yl)-5-fluoropyrimidinyl)piperazin-1-yl)(5-(5-methylthiazol-2-yl)-4,5-dihydro-1H-pyrazol-1-yl)methanone], the EC50 lay within 0.1 to 100 nM.

As to `Cn1cnnc1-c1nc(N2CCN(C(=O)N3N=CC[C@H]3c3cc(F)cc(C#N)c3)CC2)ncc1F` [Compound 197, (S)-3-fluoro-5-(1-(4-(5-fluoro-4-(4-methyl-4H-1,2,4-triazol-3-yl)pyrimidin-2-yl)piperazine-1-carbonyl)-4,5-dihydro-1H-pyrazol-5-yl)benzonitrile], the half-maximal effective concentration (EC50) was 1000 to 10000 nM.

With `Cc1nc(C)n(-c2nc(N3CCN(C(=O)N4N=CC[C@H]4c4cc(F)cc(F)c4)CC3)ncc2Cl)n1` [Compound 259, (S)-(4-(5-chloro-4-(3,5-dimethyl-1H-1,2,4-triazol-1-yl)pyrimidin-2-yl)piperazin-1-yl)(5-(3,5-difluorophenyl)-4,5-dihydro-1H-pyrazol-1-yl)methanone], the 50% effective concentration (EC50) is 0.1 to 100 nM.

Regarding `Cc1cnn(C)c1-c1sc(N2CCN(C(=O)N3N=CC[C@H]3c3cc(F)cc(F)c3)CC2)nc1Cl` [Compound 185, (S)-(4-(4-chloro-5-(1,4-dimethyl-1H-pyrazol-5-yl)thiazol-2-yl)piperazin-1-yl)(5-(3,5-difluorophenyl)-4,5-dihydro-1H-pyrazol-1-yl)methanone], the EC50 lay within 0.1 to 100 nM.

For the compound `Cn1ncnc1-c1ccc(F)c(N2CCN(C(=O)N3N=CC[C@H]3c3cc(F)cc(F)c3)CC2)n1` [Compound 175, (S)-(5-(3,5-difluorophenyl)-4,5-dihydro-1H-pyrazol-1-yl)(4-(3-fluoro-6-(1-methyl-1H-1,2,4-triazol-5-yl)pyridin-2-yl)piperazin-1-yl)methanone], the half-maximal effective concentration (EC50) was 0.1 to 100 nM.

As for `Cc1nn2c(c1-c1nc(N3CCN(C(=O)N4N=CC[C@H]4c4cc(F)cc(C#N)c4)CC3)ncc1F)CCC2` [Compound 184, (S)-3-fluoro-5-(1-(4-(5-fluoro-4-(2-methyl-5,6-dihydro-4H-pyrrolo[1,2-b]pyrazol-3-yl)pyrimidin-2-yl)piperazine-1-carbonyl)-4,5-dihydro-1H-pyrazol-5-yl)benzonitrile], the concentration for a half-maximal effect (EC50) lay in the range of 0.1 to 100 nM.

As for `Cc1ncn(-c2nc(N3CCN(C(=O)N4N=CC[C@H]4c4cncc(F)c4)CC3)ncc2F)n1` [Compound 311, (S)-(4-(5-fluoro-4-(3-methyl-1H-1,2,4-triazol-1-yl)pyrimidin-2-yl)piperazin-1-yl)(5-(5-fluoropyridin-3-yl)-4,5-dihydro-1H-pyrazol-1-yl)methanone], the EC50 is 0.1 to 100 nM.

For the compound `N#Cc1cc(F)cc([C@@H]2CC=NN2C(=O)N2CCN(c3ncc(F)c(-n4cnc(C(F)(F)F)n4)n3)CC2)c1` [Compound 306, (S)-3-fluoro-5-(1-(4-(5-fluoro-4-(3-(trifluoromethyl)-1H-1,2,4-triazol-1-yl)pyrimidin-2-yl)piperazine-1-carbonyl)-4,5-dihydro-1H-pyrazol-5-yl)benzonitrile], the EC50 fell in the range of 0.1 to 100 nM.
